Numbers after ± are expanded uncertainties.

For the data set the following is noted: 101.33 kPa, Liquid, Falling or rolling sphere viscometry.

As to `C[N+](C)(C)CCO.NCC(=O)[O-]` [2-hydroxy-N,N,N-trimethylethanaminium glycinate], the viscosity (308.15 K) is reported as 84.3 ± 1.6 mPa·s, the viscosity (318.15 K) is 29.4 ± 0.7 mPa·s, the viscosity (328.15 K) amounted to 14.3 ± 0.6 mPa·s and the viscosity (338.15 K) came out at 7.2 ± 0.3 mPa·s.

What is called viscosity is the resistance of a fluid to flow.
